Laboratory results from patent publication US20200354426A1 (MEDIMMUNE LIMITED, priority 2016, published 2020).
Read-outs that look alike come from different tables or passages of the source. Numbered stars: 1 amine (or outer) side, 2 acyl side, 3 side chain; on linkers, the order of the positions; unused ones are H or OH. Side chains are listed from the residue outwards. Peptide text beside a SMILES is read from it. * marks the point of attachment. γGlu = O=C(O)[C@H](CCC(=O)[*:2])N[*:1]; Palmitoyl = CCCCCCCCCCCCCCCC(=O)*; Ahx = NCCCCCC(=O)O

Experiments:
Assay in all cases: cAMP activity assay in assay medium (assay 1)
Type in all cases: cell-based
Settings in all cases: assay medium
Human GIPr = target: T1, Human GIPr (Homo sapiens, UniProt P48546)
T1 construct: expressed in transfected cells
T1 sequence (P48546 22-466): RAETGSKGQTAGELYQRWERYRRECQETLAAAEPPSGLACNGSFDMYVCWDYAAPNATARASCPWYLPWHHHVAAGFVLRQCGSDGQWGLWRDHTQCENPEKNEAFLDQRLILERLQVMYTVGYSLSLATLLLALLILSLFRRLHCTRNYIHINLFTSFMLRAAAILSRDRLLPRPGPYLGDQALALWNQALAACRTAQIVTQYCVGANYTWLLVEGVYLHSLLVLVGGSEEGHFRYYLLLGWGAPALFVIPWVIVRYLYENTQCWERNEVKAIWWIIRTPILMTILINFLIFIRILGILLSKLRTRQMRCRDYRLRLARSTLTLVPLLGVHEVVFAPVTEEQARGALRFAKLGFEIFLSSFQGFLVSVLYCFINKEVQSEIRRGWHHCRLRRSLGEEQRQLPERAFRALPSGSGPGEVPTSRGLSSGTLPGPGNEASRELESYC
Source text: (§1) Biological Activity of Peptides in Cell-Based cAMP Activity Assay (Assay 1):
(§2) All sample dilutions were made in duplicate.

Human GlucR = target: T2, Human GlucR (Homo sapiens, UniProt P47871)
T2 construct: expressed in transfected cells
Source text: as §1, §2

Human GLP1R = Human GLP1R (Homo sapiens, UniProt P43220); set-up: expressed in transfected cells
Source text: as §1, §2

T2 sequence (P47871 26-477): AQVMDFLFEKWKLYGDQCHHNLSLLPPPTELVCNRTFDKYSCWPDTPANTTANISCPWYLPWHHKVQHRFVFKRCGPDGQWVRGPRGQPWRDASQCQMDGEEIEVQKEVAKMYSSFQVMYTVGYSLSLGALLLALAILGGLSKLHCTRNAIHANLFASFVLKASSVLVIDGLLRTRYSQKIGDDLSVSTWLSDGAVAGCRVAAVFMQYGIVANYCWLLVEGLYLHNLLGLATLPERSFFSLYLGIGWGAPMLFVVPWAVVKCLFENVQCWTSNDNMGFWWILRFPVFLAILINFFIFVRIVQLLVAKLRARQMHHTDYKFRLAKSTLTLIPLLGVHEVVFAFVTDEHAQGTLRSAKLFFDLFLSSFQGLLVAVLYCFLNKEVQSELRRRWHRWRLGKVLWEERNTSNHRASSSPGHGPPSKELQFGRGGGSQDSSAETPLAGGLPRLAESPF
Chain of Human GLP1R (P43220 24-463): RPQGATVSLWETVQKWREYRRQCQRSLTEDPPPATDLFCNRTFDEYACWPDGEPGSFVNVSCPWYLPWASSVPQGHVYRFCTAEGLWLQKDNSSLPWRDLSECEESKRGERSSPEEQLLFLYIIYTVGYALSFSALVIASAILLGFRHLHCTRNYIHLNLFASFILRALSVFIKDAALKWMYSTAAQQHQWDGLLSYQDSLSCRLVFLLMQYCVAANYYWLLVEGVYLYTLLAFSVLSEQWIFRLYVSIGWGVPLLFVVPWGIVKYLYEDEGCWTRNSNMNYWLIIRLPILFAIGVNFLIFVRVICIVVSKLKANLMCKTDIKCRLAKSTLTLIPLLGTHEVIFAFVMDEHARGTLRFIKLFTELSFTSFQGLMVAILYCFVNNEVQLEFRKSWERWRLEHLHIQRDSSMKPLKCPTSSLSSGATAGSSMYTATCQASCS

EC50 (Human GIPr; Table 4, read-out: hGIPR EC50)	EC50 (Human GlucR; Table 4, read-out: hGlucR EC50)	EC50 (Human GLP1R; Table 4, read-out: hGLP1R EC50)	EC50 (Human GIPr; Table 3, C-terminal acid peptides, read-out: Human GIPr EC50)	EC50 (Human GlucR; Table 3, C-terminal acid peptides, read-out: Human GlucR EC50)	EC50 (Human GLP1R; Table 3, C-terminal acid peptides, read-out: Human GLP1R EC50)	Compound
1670 nM	11.1 nM	0.426 nM	–	–	–	CCCCCCCCCCCCCCCC(=O)N[C@@H](CCC(=O)NCCCC[C@H](NC(=O)[C@H](CO)NC(=O)[C@H](CC(=O)O)NC(=O)[C@H](CC(C)C)NC(=O)[C@H](Cc1ccc(O)cc1)NC(=O)[C@H](CCC(=O)O)NC(=O)[C@H](CO)NC(=O)[C@H](Cc1ccc(O)cc1)NC(=O)[C@H](CC(=O)O)NC(=O)[C@H](CO)NC(=O)[C@@H](NC(=O)[C@H](Cc1ccccc1)NC(=O)[C@@H](NC(=O)CNC(=O)[C@H](CCC(N)=O)NC(=O)CNC(=O)[C@@H](N)Cc1c[nH]cn1)[C@@H](C)O)[C@@H](C)O)C(=O)N[C@@H](CCCNC(=N)N)C(=O)N[C@@H](C)C(=O)N[C@@H](C)C(=O)N[C@@H](CC(=O)O)C(=O)N[C@@H](Cc1ccccc1)C(=O)N[C@H](C(=O)N[C@@H](C)C(=O)N[C@@H](Cc1c[nH]c2ccccc12)C(=O)N[C@@H](CC(C)C)C(=O)N[C@@H](CCC(=O)O)C(=O)N[C@@H](CCCNC(=N)N)C(=O)NCC(=O)NCC(N)=O)C(C)C)C(=O)O [g722]
–	–	–	47 nM	0.0089 nM	0.012 nM	CCCCCCCCCCCCCCCC(=O)N[C@@H](CCC(=O)NCCCC[C@H](NC(=O)[C@H](CC(=O)O)NC(=O)[C@H](CO)NC(=O)[C@@H](NC(=O)[C@H](Cc1ccccc1)NC(=O)[C@@H](NC(=O)CNC(=O)[C@H](CCC(N)=O)NC(=O)[C@H](CO)NC(=O)[C@@H](N)Cc1c[nH]cn1)[C@@H](C)O)[C@@H](C)O)C(=O)N[C@@H](CO)C(=O)N[C@@H](CO)C(=O)N[C@@H](Cc1ccc(O)cc1)C(=O)N[C@@H](CC(C)C)C(=O)N[C@@H](CC(=O)O)C(=O)N[C@@H](CO)C(=O)N[C@@H](CCCNC(=N)N)C(=O)N[C@@H](CO)C(=O)N[C@@H](C)C(=O)N[C@@H](CCCNC(=N)N)C(=O)N[C@@H](CC(=O)O)C(=O)N[C@@H](Cc1ccccc1)C(=O)N[C@H](C(=O)N[C@@H](C)C(=O)N[C@@H](Cc1c[nH]c2ccccc12)C(=O)N[C@@H](CC(C)C)C(=O)N[C@@H](CCC(=O)O)C(=O)N[C@@H](C)C(=O)NCC(=O)NCC(=O)O)C(C)C)C(=O)O [Peptide G973]
15.2 nM	0.00168 nM	0.0251 nM	–	–	–	CCCCCCCCCCCCCCCC(=O)N[C@@H](CCC(=O)NCCCC[C@H](NC(=O)[C@H](Cc1ccc(O)cc1)NC(=O)[C@H](CCCCN)NC(=O)[C@H](CO)NC(=O)[C@H](Cc1ccc(O)cc1)NC(=O)[C@H](CC(=O)O)NC(=O)[C@H](CO)NC(=O)[C@@H](NC(=O)[C@H](Cc1ccccc1)NC(=O)[C@@H](NC(=O)CNC(=O)[C@H](CCC(N)=O)NC(=O)[C@H](CO)NC(=O)[C@@H](N)Cc1c[nH]cn1)[C@@H](C)O)[C@@H](C)O)C(=O)N[C@@H](CC(=O)O)C(=O)N[C@@H](CO)C(=O)N[C@@H](CCCNC(=N)N)C(=O)N[C@@H](C)C(=O)N[C@@H](C)C(=O)N[C@@H](CCC(N)=O)C(=O)N[C@@H](CC(=O)O)C(=O)N[C@@H](Cc1ccccc1)C(=O)N[C@H](C(=O)N[C@@H](CCC(N)=O)C(=O)N[C@@H](Cc1c[nH]c2ccccc12)C(=O)N[C@@H](CC(C)C)C(=O)N[C@@H](CCC(=O)O)C(=O)N[C@@H](C)C(=O)NCC(=O)NCC(N)=O)C(C)C)C(=O)O [g817] (H-HSQGTFTSDYSKYK([γGlu-Palmitoyl])DSRAAQDFVQWLEAGG-NH2; N-terminus assumed)
11.8 nM	2.46 nM	12.9 nM	–	–	–	CCCCCCCCCCCCCCCC(=O)N[C@@H](CCC(=O)NCCCC[C@H](NC(=O)[C@H](Cc1ccc(O)cc1)NC(=O)[C@H](CC(=O)O)NC(=O)[C@H](CO)NC(=O)[C@@H](NC(=O)[C@H](Cc1ccccc1)NC(=O)[C@@H](NC(=O)CNC(=O)[C@H](CCC(N)=O)NC(=O)[C@H](CO)NC(=O)[C@@H](N)Cc1c[nH]cn1)[C@@H](C)O)[C@@H](C)O)C(=O)N[C@@H](CCCCN)C(=O)N[C@@H](Cc1ccc(O)cc1)C(=O)N[C@@H](CC(C)C)C(=O)N[C@@H](CC(=O)O)C(=O)N[C@@H](CO)C(=O)N[C@@H](CCCNC(=N)N)C(=O)N[C@@H](CCCNC(=N)N)C(=O)N[C@@H](C)C(=O)N[C@@H](CCC(N)=O)C(=O)N[C@@H](CC(=O)O)C(=O)N[C@@H](Cc1ccccc1)C(=O)N[C@H](C(=O)N[C@@H](CCC(N)=O)C(=O)N[C@@H](Cc1c[nH]c2ccccc12)C(=O)N[C@@H](CC(C)C)C(=O)N[C@H](C(=O)N[C@@H](C)C(=O)NCC(=O)NCC(N)=O)C(C)C)C(C)C)C(=O)O [g716] (H-HSQGTFTSDYK([γGlu-Palmitoyl])KYLDSRRAQDFVQWLVAGG-NH2; N-terminus assumed)
17 nM	0.0429 nM	0.0272 nM	–	–	–	CCCCCCCCCCCCCCCC(=O)N[C@@H](CCC(=O)NCCCC[C@H](NC(=O)[C@H](CO)NC(=O)[C@H](CC(=O)O)NC(=O)[C@H](CC(C)C)NC(=O)[C@H](Cc1ccc(O)cc1)NC(=O)[C@H](CCCCN)NC(=O)[C@H](CO)NC(=O)[C@H](Cc1ccc(O)cc1)NC(=O)[C@H](CC(=O)O)NC(=O)[C@H](CO)NC(=O)[C@@H](NC(=O)[C@H](Cc1ccccc1)NC(=O)[C@@H](NC(=O)CNC(=O)[C@H](CCC(N)=O)NC(=O)C(C)(C)NC(=O)[C@@H](N)Cc1c[nH]cn1)[C@@H](C)O)[C@@H](C)O)C(=O)N[C@@H](CCCNC(=N)N)C(=O)N[C@@H](C)C(=O)N[C@@H](CCC(N)=O)C(=O)N[C@@H](CC(=O)O)C(=O)N[C@@H](Cc1ccccc1)C(=O)N[C@H](C(=O)N[C@@H](CCC(N)=O)C(=O)N[C@@H](Cc1c[nH]c2ccccc12)C(=O)N[C@@H](CC(C)C)C(=O)N[C@H](C(=O)N[C@@H](C)C(=O)NCC(=O)NCC(N)=O)C(C)C)C(C)C)C(=O)O [g384]
933 nM	30.9 nM	0.019 nM	–	–	–	CCCCCCCCCCCCCCCC(=O)NCCCCCC(=O)NCCCC[C@H](NC(=O)[C@H](CO)NC(=O)[C@H](CC(=O)O)NC(=O)[C@H](CC(C)C)NC(=O)[C@H](Cc1ccc(O)cc1)NC(=O)[C@H](CCC(=O)O)NC(=O)[C@H](CO)NC(=O)[C@H](Cc1ccc(O)cc1)NC(=O)[C@H](CC(=O)O)NC(=O)[C@H](CO)NC(=O)[C@@H](NC(=O)[C@H](Cc1ccccc1)NC(=O)[C@@H](NC(=O)CNC(=O)[C@H](CCC(=O)O)NC(=O)CNC(=O)[C@@H](N)Cc1c[nH]cn1)[C@@H](C)O)[C@@H](C)O)C(=O)N[C@@H](CCCNC(=N)N)C(=O)N[C@@H](C)C(=O)N[C@@H](CCCNC(=N)N)C(=O)N[C@@H](CC(=O)O)C(=O)N[C@@H](Cc1ccccc1)C(=O)N[C@H](C(=O)N[C@@H](C)C(=O)N[C@@H](Cc1c[nH]c2ccccc12)C(=O)N[C@@H](CC(C)C)C(=O)N[C@@H](CCC(=O)O)C(=O)N[C@@H](CCCNC(=N)N)C(=O)NCC(=O)NCC(N)=O)C(C)C [g724] (H-HGEGTFTSDYSEYLDSK([Ahx-Palmitoyl])RARDFVAWLERGG-NH2; N-terminus assumed)
124 nM	39.9 nM	0.283 nM	–	–	–	CCCCCCCCCCCCCCCC(=O)N[C@@H](CCC(=O)NCCCC[C@H](NC(=O)[C@H](CO)NC(=O)[C@H](CC(=O)O)NC(=O)[C@H](CC(C)C)NC(=O)[C@H](Cc1ccc(O)cc1)NC(=O)[C@H](CCCCN)NC(=O)[C@H](CO)NC(=O)[C@H](Cc1ccc(O)cc1)NC(=O)[C@H](CC(=O)O)NC(=O)[C@H](CO)NC(=O)[C@@H](NC(=O)[C@H](Cc1ccccc1)NC(=O)[C@@H](NC(=O)CNC(=O)[C@H](CCC(=O)O)NC(=O)CNC(=O)[C@@H](N)Cc1c[nH]cn1)[C@@H](C)O)[C@@H](C)O)C(=O)N[C@@H](CCCNC(=N)N)C(=O)N[C@@H](C)C(=O)N[C@@H](CCC(=O)O)C(=O)N[C@@H](CC(=O)O)C(=O)N[C@@H](Cc1ccccc1)C(=O)N[C@H](C(=O)N[C@@H](CCC(=O)O)C(=O)N[C@@H](Cc1c[nH]c2ccccc12)C(=O)N[C@@H](CC(C)C)C(=O)N[C@H](C(=O)N[C@@H](C)C(=O)NCC(=O)NCC(N)=O)C(C)C)C(C)C)C(=O)O [g681] (H-HGEGTFTSDYSKYLDSK([γGlu-Palmitoyl])RAEDFVEWLVAGG-NH2; N-terminus assumed)
29.4 nM	0.0396 nM	0.0232 nM	–	–	–	CCCCCCCCCCCCCCCC(=O)N[C@@H](CCC(=O)NCCCC[C@H](NC(=O)[C@H](Cc1ccc(O)cc1)NC(=O)[C@H](CCCCN)NC(=O)[C@H](CO)NC(=O)[C@H](Cc1ccc(O)cc1)NC(=O)[C@H](CC(=O)O)NC(=O)[C@H](CO)NC(=O)[C@@H](NC(=O)[C@H](Cc1ccccc1)NC(=O)[C@@H](NC(=O)CNC(=O)[C@H](CCC(N)=O)NC(=O)CNC(=O)[C@@H](N)Cc1c[nH]cn1)[C@@H](C)O)[C@@H](C)O)C(=O)N[C@@H](CC(=O)O)C(=O)N[C@@H](CO)C(=O)N[C@@H](CCC(=O)O)C(=O)N[C@@H](CCCNC(=N)N)C(=O)N[C@@H](C)C(=O)N[C@@H](CCCNC(=N)N)C(=O)N[C@@H](CC(=O)O)C(=O)N[C@@H](Cc1ccccc1)C(=O)N[C@H](C(=O)N[C@@H](C)C(=O)N[C@@H](Cc1c[nH]c2ccccc12)C(=O)N[C@@H](CC(C)C)C(=O)N[C@H](C(=O)N[C@@H](C)C(=O)NCC(=O)NCC(N)=O)C(C)C)C(C)C)C(=O)O [g732] (H-HGQGTFTSDYSKYK([γGlu-Palmitoyl])DSERARDFVAWLVAGG-NH2; N-terminus assumed)
